Paper PMC9853847 (2023)

What was measured:
Assay in all cases: FRET titration (MLCT donor to Cy5.5-labeled DNA), dose-response fit
[1] = system: matched duplex (27-mer) (DNA, duplex) GACCAGCTTATCACCCCTAGATACCAT/ATGGTATCTAGGGGTGATAAGCTGGTC; settings: 200 mM NaCl; 5 mM Tris, pH 7.5; 1 μM DNA
[2] = system: mismatch 1 duplex (27-mer, CC mismatch at 4 bp) (DNA, mismatch bulge abasic) GACCAGCTTATCACCCCTAGATACCAT/ATGGTATCTAGGGGTGATAAGCTCGTC; settings: 200 mM NaCl; 5 mM Tris, pH 7.5; 1 μM DNA
[3] = system: mismatch 3 duplex (27-mer, CC mismatch at 24 bp) (DNA, mismatch bulge abasic) GACCAGCTTATCACCCCTAGATACCAT/ATGCTATCTAGGGGTGATAAGCTGGTC; settings: 200 mM NaCl; 5 mM Tris, pH 7.5; 1 μM DNA
[4] = system: 20-mer duplex (DNA, duplex) TGAGGATGTGTAGGTTGATG/CATCAACCTACACATCCTCA; settings: 200 mM NaCl; 5 mM Tris, pH 7.5; 1 μM DNA
[5] = system: 3WJ (three-way junction) (DNA, junction) TGAGGATGTGTAGGTTGATG/CATCAACCTAAGAATGAGAC/GTCTCATTCTCACATCCTCA; settings: 200 mM NaCl, 5 mM Tris, pH 7.5, 1 μM DNA
[6] = system: G-quadruplex (G4) (DNA, G4) AGGGTTAGGGTTAGGGTTAGGG; settings: 100 mM KCl, 10 mM Tris.HCl, pH 7.4, 1 μM DNA
[7] = system: mismatch 2 duplex (27-mer, CC mismatch at 14 bp) (DNA, mismatch bulge abasic) GACCAGCTTATCACCCCTAGATACCAT/ATGGTATCTAGGGCTGATAAGCTGGTC; settings: 200 mM NaCl; 5 mM Tris, pH 7.5; 1 μM DNA
[8] = not saturated, tested up to 20 μM

Compound | Kd [1] | Kd [2] | Kd [3] | Kd [4] | Kd [5] | Kd [6] | Kd [7] | Kd ([5]; tested up to 20 μM) | Kd [6, 8]
Cc1ccc(-c2ccc(C)cn2)nc1.Cc1ccc(-c2ccc(C)cn2)nc1.[Ru+2].c1ccc2nc3c4cccnc4c4ncccc4c3nc2c1 | 4.7 ± 0.1 µM | 4.6 ± 0.6 µM | 5.1 ± 0.3 µM | 2.3 ± 0.5 µM | 4.4 ± 0.7 µM | 3.8 ± 1.7 µM | 4.3 ± 0.6 µM |  | 
Cc1ccc(-c2ccc(C)cn2)nc1.[Ru+2].c1ccc2nc3c4cccnc4c4ncccc4c3nc2c1.c1ccc2nc3c4cccnc4c4ncccc4c3nc2c1 | 8.1 ± 1.7 µM | 6.4 ± 1.7 µM | 8.1 ± 3.7 µM | 6.3 ± 0.3 µM |  |  | 8.3 ± 3.0 µM | > 20 µM | > 20 µM
[Ru+2].c1ccc(-c2ccccn2)nc1.c1ccc(-c2ccccn2)nc1.c1ccc2nc3c4cccnc4c4ncccc4c3nc2c1 | 5.1 ± 0.4 µM | 5.0 ± 0.7 µM | 6.5 ± 1.8 µM | 2.8 ± 0.9 µM | 4.3 ± 0.9 µM | 3.9 ± 1.3 µM | 5.3 ± 0.6 µM |  | 
Cc1ccc(-c2ccc(C)cn2)nc1.[Ru+2].c1ccc(-c2nc3c4cccnc4c4ncccc4c3[nH]2)cc1.c1ccc(-c2nc3c4cccnc4c4ncccc4c3[nH]2)cc1 | 7.9 ± 2.5 µM | 7.3 ± 2.5 µM | 7.6 ± 1.9 µM | 2.6 ± 1.0 µM | 6.4 ± 0.3 µM |  | > 20 µM |  | > 20 µM
